Here are results for 3 molecules from article PMC12078400, “Terminal spin labeling of xylotriose strongly affects interactions in the active site of xylanase BcX” (Journal of Biomolecular Nmr, 2025).

Like-named read-outs stand apart in the source and are kept apart here.

Test [1] deals with T1, BcX E78Q (Niallia circulans, UniProt P09850, E106Q).
T1 construct: made in house
Briefly: NMR titration (1H-15N HSQC) of 15N-labeled BcX E78Q with ligand. It counts as binding, Bacillus circulans. On the procedure:
(§1) Solutions of ^15N-labeled BcX E78Q and BcX E78Q-Y69A (100 µM) were titrated with Dia-X3 and Para-X3. Concentrations of up to 50 mM for Dia-X3 and 8 mM for Para-X3 were used. Samples were prepared separately, and each contained 25 mM sodium acetate buffer (pH 5.8) and 10% D2O for lock. ^1H − ^15N HSQC spectra were obtained on a Bruker HD Avance 850 MHz spectrometer with a cryoprobe, at 20 °C, using 3 mm tubes. In one experiment Para-X3 was reduced in the NMR tube with ascorbic acid to study the effect of reduction in a single sample. The assignment, processing, and analysis of the HSQC spectra were conducted as detailed before (Saberi et al. [2024]).
(§2) Spectra were processed with Topspin (Bruker) and analyzed using CCPN Analysis v.2.4.2 (Vranken et al. [2005]). The weighted average chemical shift perturbations (CSP) for backbone amides (Δδavg) was calculated according to Eq. 1 (modified after Williamson [2013]):1 Δδavg=δH^2+δN/25^2 where δH and δN are the CSPs for ^1H and ^15N nuclei. Titration data were fitted to a 1:1 model Eq. (2), which simplifies to (3) when the ligand concentration [Lt] is much higher than the protein concentration [Pt] (Arai et al. [2012]; Wang et al. [1996]; Williamson [2013]):2 Δδobs=ΔδmaxKD+[Pt]+[Lt]-KD+[Pt]+[Lt]^2-4[Pt][Lt]/2[Pt] 3 Δδobs=[Lt]/KD+[Lt]Δδmax where Δδobs and Δδmax are the observed and maximal change in the chemical shift and KD is the dissociation constant. The error in KD was estimated by manually adjusting KD to higher and lower values and observing the range over which the fit of the CSP data to the model remained within the peak picking error bars of the CSPs.
(§3) The fractional populations of the free and bound states were calculated using the peak height (I) as follows:4 ffree=Ifree/Ifree+Ibound,fbound=Ibound/Ifree+Ibound
(§4) Here, ffree and fbound represent the fractions of the protein in the free and bound states. The uncertainties in the peak heights represent the noise level in the spectra. The dissociation constant KD was determined using:5 KD=ffree.Lfree/fbound
(§5) In this equation, [Lfree] represents the concentration of the free ligand, which was approximated as the total ligand concentration [Ltotal] because the ligand was in large excess relative to the protein. The mean KD value was determined by averaging KD values across the used residues.

The target of test [2] is T2, BcX E78Q-Y69A (Niallia circulans, UniProt P09850, E106Q/Y97A).
T2 construct: made in house
Briefly: NMR titration (1H-15N HSQC) of 15N-labeled BcX E78Q-Y69A with ligand. It counts as binding, Bacillus circulans. On the procedure:
as §1, §2, §3, §4, §5

In test [3] the target is T1, BcX E78Q. As to conditions: ref Saberi et al. [2024], cited from earlier work.
Test [4] addresses T2, BcX E78Q-Y69A. Conditions: ref Saberi et al. [2024], cited from earlier work.
The mark [5] stands for this setting: α-helix region, Para-X3 vs Dia-X3.
Where [6] appears, read: α-helix region, global fit of CSP, pH 5.8, 20 °C, read-out: Dissociation constant KD, helix.
The mark [7] stands for this setting: secondary binding site, read-out: Dissociation constant KD, SBS.

Turning to `CC1(C)CC(O[C@@H]2OC[C@@H](O[C@@H]3OC[C@@H](O[C@@H]4OC[C@@H](O)[C@H](O)[C@H]4O)[C@H](O)[C@H]3O)[C@H](O)[C@H]2O)CC(C)(C)N1[O]` [Para-X3, β-D-xylopyranosyl-(1 → 4)-β-D-xylopyranosyl-(1 → 4)-1-TEMPOL-β-D-xylopyranoside], the Kd is > 8 mM on BcX E78Q [1] (active site, CSP of amides, up to 8 mM ligand, NB = no binding, read-out: Dissociation constant KD, active site); 1.6 mM on BcX E78Q [1] (setting [6]); > 8 mM at BcX E78Q-Y69A [2] (active site, fit of CSP curves (fast exchange), NB = no binding, read-out: Dissociation constant KD, active site); 2.4 mM on BcX E78Q-Y69A [2] (setting [6]). Also, the “Binding in the active site cavity (CSP or intensity loss of amide resonances)” value at BcX E78Q [1] (inside active site cleft, up to 8 mM ligand) was “absent or very weak”. The “Affinity for helix region, fold higher than for the diamagnetic equivalent (Dia-X3)” value on BcX E78Q [1] (setting [5]) stood at 2.7 fold; at BcX E78Q-Y69A [2] (setting [5]), 1.4 fold. In addition, the “CSPs or PRE for amides in the inner palm region (active site)” value at BcX E78Q-Y69A [2] (8 mM ligand) is “No significant CSPs or PRE”.
As for `OC1OC[C@@H](O[C@@H]2OC[C@@H](O[C@@H]3OC[C@@H](O)[C@H](O)[C@H]3O)[C@H](O)[C@H]2O)[C@H](O)[C@H]1O` (some centres unmarked) [X3, xylotriose], the Kd on BcX E78Q [3] (active site, read-out: Dissociation constant KD, active site) is 5.7 mM; at BcX E78Q [3] (setting [7]) it was 23 mM; on BcX E78Q-Y69A [4] (active site, aglycon subsites, 2:1 model, read-out: Dissociation constant KD2, active site), 24 mM; on BcX E78Q-Y69A [4] (active site, glycon subsites, 2:1 model, read-out: Dissociation constant KD1, active site), 15 mM; at BcX E78Q-Y69A [4] (setting [7]) it was 22 mM.
For `OC1OC[C@@H](O[C@@H]2OC[C@@H](O[C@@H]3OC[C@@H](O[C@@H]4OC[C@@H](O)[C@H](O)[C@H]4O)[C@H](O)[C@H]3O)[C@H](O)[C@H]2O)[C@H](O)[C@H]1O` (some centres unmarked) [X4], the Kd at BcX E78Q [3] (setting [7]) was 2.3 mM.
